Source: ChEMBL document CHEMBL3608225, “Harpagoside Inhibits RANKL-Induced Osteoclastogenesis via Syk-Btk-PLCγ2-Ca(2+) Signaling Pathway and Prevents Inflammation-Mediated Bone Loss” (J Nat Prod, 2015)
The source made the active and inactive calls. The rule behind the calls is not given here.

What was measured:
[1] = target: T1, Tumor necrosis factor ligand superfamily member 11 (Mus musculus) (UniProt O35235); experiment: Inhibition of RANKL-mediated osteoclastogenesis in mouse BMMC assessed as reduction of NFATc1 protein expression at 100 uM after 12 to 48 hrs by Western blot analysis; assay type: functional
T1 sequence (whole entry): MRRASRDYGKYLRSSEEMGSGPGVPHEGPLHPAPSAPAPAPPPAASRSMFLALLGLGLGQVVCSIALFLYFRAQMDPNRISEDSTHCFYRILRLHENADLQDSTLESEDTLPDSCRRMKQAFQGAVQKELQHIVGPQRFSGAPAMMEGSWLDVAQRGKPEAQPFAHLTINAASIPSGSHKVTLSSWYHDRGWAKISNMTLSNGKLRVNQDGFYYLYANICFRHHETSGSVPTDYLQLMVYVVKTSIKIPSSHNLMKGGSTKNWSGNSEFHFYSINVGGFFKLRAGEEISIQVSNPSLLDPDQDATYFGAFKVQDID

[2] = target: Tyrosine-protein kinase SYK (Mus musculus) (UniProt P48025); experiment: Inhibition of RANKL-mediated Syk phosphorylation in mouse BMMC at 100 uM after 1 hr by Western blot analysis
Osteoclast = experiment: Inhibition of bone resorption in mouse mature osteoclasts after 24 hrs by light microscopic analysis; assay type: functional, cell-based
[3] = target: T1, Tumor necrosis factor ligand superfamily member 11 (Mus musculus); experiment: Inhibition of RANKL-mediated osteoclastogenesis in mouse BMMC assessed as reduction of c-Fos protein expression at 100 uM after 12 to 48 hrs by Western blot analysis; assay type: functional
Mus musculus [4] = experiment: Inhibition of LPS-induced bone loss in ICR mouse assessed as restoration of Tb.Sp in femurs at 10 mg/kg, po after 10 days by morphometric analysis; assay type: functional, organism-based
Mus musculus [5] = experiment: Inhibition of ovariectomized-induced bone loss in C57BL/6 mouse assessed as reduction of loss of bone mineral density at 10 mg/kg, po administered every other day for 28 days by micro-CT analysis; assay type: functional, organism-based
Mus musculus [6] = experiment: Inhibition of LPS-induced bone loss in ICR mouse assessed as restoration of number of osteoclasts in femurs at 10 mg/kg, po after 10 days; assay type: functional, organism-based
Mus musculus [7] = experiment: Inhibition of LPS-induced bone loss in ICR mouse assessed as prevention of loss in trabecular bone in femurs at 10 mg/kg, po after 10 days by micro-CT analysis; assay type: functional, organism-based; settings: Trabecula
[8] = target: T2, 1-phosphatidylinositol 4,5-bisphosphate phosphodiesterase gamma-2 (Mus musculus) (UniProt Q8CIH5); experiment: Inhibition of RANKL-mediated PLCgamma2 phosphorylation in mouse BMMC at 100 uM after 1 hr by Western blot analysis
T2 sequence (whole entry): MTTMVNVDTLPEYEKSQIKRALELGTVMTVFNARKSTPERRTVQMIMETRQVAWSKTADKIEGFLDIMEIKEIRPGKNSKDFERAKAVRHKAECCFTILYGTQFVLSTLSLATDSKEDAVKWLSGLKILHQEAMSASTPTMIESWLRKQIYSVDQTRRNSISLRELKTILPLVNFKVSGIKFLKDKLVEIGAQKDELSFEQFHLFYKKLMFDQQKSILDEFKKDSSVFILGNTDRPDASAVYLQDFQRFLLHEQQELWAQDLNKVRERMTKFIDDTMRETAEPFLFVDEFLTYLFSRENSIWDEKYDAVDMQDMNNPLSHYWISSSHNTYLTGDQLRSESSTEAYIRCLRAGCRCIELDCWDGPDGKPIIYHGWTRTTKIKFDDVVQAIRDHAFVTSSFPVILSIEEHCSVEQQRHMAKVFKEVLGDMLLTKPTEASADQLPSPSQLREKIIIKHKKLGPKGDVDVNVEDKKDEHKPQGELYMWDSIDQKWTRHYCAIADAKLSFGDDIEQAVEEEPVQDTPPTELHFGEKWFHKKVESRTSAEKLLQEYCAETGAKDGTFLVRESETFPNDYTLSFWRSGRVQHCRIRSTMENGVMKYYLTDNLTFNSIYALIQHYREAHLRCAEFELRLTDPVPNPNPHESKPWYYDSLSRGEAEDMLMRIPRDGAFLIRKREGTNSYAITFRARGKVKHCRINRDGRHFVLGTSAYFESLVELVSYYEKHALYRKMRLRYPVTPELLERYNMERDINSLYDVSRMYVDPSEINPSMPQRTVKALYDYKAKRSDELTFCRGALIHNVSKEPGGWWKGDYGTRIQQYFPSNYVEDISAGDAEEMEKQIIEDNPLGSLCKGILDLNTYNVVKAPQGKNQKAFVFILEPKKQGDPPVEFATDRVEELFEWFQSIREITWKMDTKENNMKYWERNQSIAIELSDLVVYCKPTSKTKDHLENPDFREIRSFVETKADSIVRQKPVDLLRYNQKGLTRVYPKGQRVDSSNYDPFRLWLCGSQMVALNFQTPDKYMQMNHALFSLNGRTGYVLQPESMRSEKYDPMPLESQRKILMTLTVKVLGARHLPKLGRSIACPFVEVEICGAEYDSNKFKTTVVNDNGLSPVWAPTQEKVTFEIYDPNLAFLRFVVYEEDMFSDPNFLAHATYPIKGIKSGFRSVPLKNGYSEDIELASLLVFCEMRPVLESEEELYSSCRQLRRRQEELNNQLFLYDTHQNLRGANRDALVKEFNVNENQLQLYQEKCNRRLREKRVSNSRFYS

[9] = Cytotoxicity against mouse BMMC assessed as cell viability after 3 days by XTT assay; settings: 72 h
Mus musculus [10] = experiment: Inhibition of LPS-induced bone loss in ICR mouse assessed as restoration of osteoclast formation in femurs at 10 mg/kg, po after 10 days by hematoxylin and eosin staining; assay type: functional, organism-based
[11] = target: T1, Tumor necrosis factor ligand superfamily member 11 (Mus musculus); experiment: Inhibition of RANKL-mediated osteoclastogenesis in mouse BMMC assessed as reduction of cathepsin K mRNA expression at 100 uM after 12 to 48 hrs by RT-PCR analysis; assay type: functional
[12] = target: Tyrosine-protein kinase BTK (Mus musculus) (UniProt P35991); experiment: Inhibition of RANKL-mediated Btk phosphorylation in mouse BMMC at 100 uM after 1 hr by Western blot analysis
Mus musculus [13] = experiment: Inhibition of LPS-induced bone loss in ICR mouse assessed as reduction of RANKL/OPG ratio in serum level at 10 mg/kg, po after 10 days by ELISA; assay type: functional, organism-based
[14] = target: T1, Tumor necrosis factor ligand superfamily member 11 (Mus musculus); experiment: Inhibition of RANKL-mediated osteoclast differentiation in mouse BMMC assessed as formation of TRAP-positive osteoclasts after 4 days; assay type: functional
Mus musculus [15] = experiment: Inhibition of ovariectomized-induced bone loss in C57BL/6 mouse assessed as restoration of bone loss in femurs at 10 mg/kg, po administered every other day for 28 days by hematoxylin and eosin staining; assay type: functional, organism-based
Mus musculus [16] = experiment: Inhibition of ovariectomized-induced bone loss in C57BL/6 mouse assessed as restoration of Tb.N in femurs at 10 mg/kg, po administered every other day for 28 days by morphometric analysis; assay type: functional, organism-based
[17] = target: T1, Tumor necrosis factor ligand superfamily member 11 (Mus musculus); experiment: Inhibition of RANKL-mediated JNK phosphorylation in mouse BMMC at 100 uM after 1 hr by Western blot analysis
Mus musculus [18] = experiment: Inhibition of LPS-induced bone loss in ICR mouse assessed as restoration of BV/TV in femurs at 10 mg/kg, po after 10 days by morphometric analysis; assay type: functional, organism-based
Mus musculus [19] = experiment: Inhibition of ovariectomized-induced bone loss in C57BL/6 mouse assessed as CTX-I level in serum at 10 mg/kg, po administered every other day for 28 days by ELISA; assay type: functional, organism-based
Mus musculus [20] = experiment: Inhibition of LPS-induced bone loss in ICR mouse assessed as restoration of bone loss in femurs at 10 mg/kg, po after 10 days by hematoxylin and eosin staining; assay type: functional, organism-based
Mus musculus [21] = experiment: Inhibition of ovariectomized-induced bone loss in C57BL/6 mouse assessed as restoration of Tb.Sp in femurs at 10 mg/kg, po administered every other day for 28 days by morphometric analysis; assay type: functional, organism-based
[22] = target: T1, Tumor necrosis factor ligand superfamily member 11 (Mus musculus); experiment: Inhibition of RANKL-mediated osteoclastogenesis in mouse BMMC assessed as reduction of OSCAR mRNA expression at 100 uM after 12 to 48 hrs by RT-PCR analysis; assay type: functional
Mus musculus [23] = experiment: Inhibition of ovariectomized-induced bone loss in C57BL/6 mouse assessed as restoration of BV/TV in femurs at 10 mg/kg, po administered every other day for 28 days by morphometric analysis; assay type: functional, organism-based
Mus musculus [24] = experiment: Inhibition of ovariectomized-induced bone loss in C57BL/6 mouse assessed as restoration number of osteoclasts in femurs at 10 mg/kg, po administered every other day for 28 days; assay type: functional, organism-based
[25] = target: T1, Tumor necrosis factor ligand superfamily member 11 (Mus musculus); experiment: Inhibition of RANKL-mediated osteoclast differentiation in mouse BMMC assessed as disruption of F-actin ring formation after 3 days using phalloidin and DAPI staining; assay type: functional
[26] = target: T1, Tumor necrosis factor ligand superfamily member 11 (Mus musculus); experiment: Inhibition of RANKL-mediated ERK phosphorylation in mouse BMMC at 100 uM after 1 hr by Western blot analysis
[27] = target: T1, Tumor necrosis factor ligand superfamily member 11 (Mus musculus); experiment: Inhibition of RANKL-mediated osteoclastogenesis in mouse BMMC assessed as reduction of amplitude and frequency of Ca2+ oscillations at 100 uM after 24 hrs by Fura-2/AM fluorescence assay; assay type: functional
[28] = target: T1, Tumor necrosis factor ligand superfamily member 11 (Mus musculus); experiment: Inhibition of RANKL-mediated osteoclastogenesis in mouse BMMC assessed as reduction of DC-STAMP mRNA expression at 100 uM after 12 to 48 hrs by RT-PCR analysis; assay type: functional
Mus musculus [29] = experiment: Inhibition of LPS-induced bone loss in ICR mouse assessed as restoration of Tb.Th in femurs at 10 mg/kg, po after 10 days by morphometric analysis; assay type: functional, organism-based
[30] = target: T1, Tumor necrosis factor ligand superfamily member 11 (Mus musculus); experiment: Inhibition of RANKL-mediated osteoclastogenesis in mouse BMMC assessed as reduction of beta3-integrin mRNA expression at 100 uM after 12 to 48 hrs by RT-PCR analysis; assay type: functional
Mus musculus [31] = experiment: Inhibition of LPS-induced bone loss in ICR mouse assessed as reduction of CTX-I in serum at 10 mg/kg, po after 10 days by ELISA; assay type: functional, organism-based
[32] = target: T1, Tumor necrosis factor ligand superfamily member 11 (Mus musculus); experiment: Inhibition of RANKL-mediated osteoclastogenesis in mouse BMMC assessed as reduction of TRAP mRNA expression at 100 uM after 12 to 48 hrs by RT-PCR analysis; assay type: functional
Mus musculus [33] = experiment: Inhibition of LPS-induced bone loss in ICR mouse assessed as restoration of Tb.N in femurs at 10 mg/kg, po after 10 days by morphometric analysis; assay type: functional, organism-based
[34] = target: T1, Tumor necrosis factor ligand superfamily member 11 (Mus musculus); experiment: Inhibition of RANKL-mediated osteoclastogenesis in mouse BMMC assessed as reduction of NFATc1 mRNA expression at 100 uM after 12 to 48 hrs by RT-PCR analysis; assay type: functional
[35] = target: T1, Tumor necrosis factor ligand superfamily member 11 (Mus musculus); experiment: Inhibition of RANKL-mediated osteoclastogenesis in mouse BMMC assessed as reduction of c-Fos mRNA expression at 100 uM after 12 to 48 hrs by RT-PCR analysis; assay type: functional
Mus musculus [36] = experiment: Inhibition of ovariectomized-induced bone loss in C57BL/6 mouse assessed as restoration of osteoclast formation in femurs at 10 mg/kg, po administered every other day for 28 days by hematoxylin and eosin staining; assay type: functional, organism-based
[37] = target: T1, Tumor necrosis factor ligand superfamily member 11 (Mus musculus); experiment: Inhibition of RANKL-mediated osteoclastogenesis in mouse BMMC assessed as reduction of CTR mRNA expression at 100 uM after 12 to 48 hrs by RT-PCR analysis; assay type: functional

Chain of Tyrosine-protein kinase SYK (Mus musculus) (P48025 whole entry, looked up): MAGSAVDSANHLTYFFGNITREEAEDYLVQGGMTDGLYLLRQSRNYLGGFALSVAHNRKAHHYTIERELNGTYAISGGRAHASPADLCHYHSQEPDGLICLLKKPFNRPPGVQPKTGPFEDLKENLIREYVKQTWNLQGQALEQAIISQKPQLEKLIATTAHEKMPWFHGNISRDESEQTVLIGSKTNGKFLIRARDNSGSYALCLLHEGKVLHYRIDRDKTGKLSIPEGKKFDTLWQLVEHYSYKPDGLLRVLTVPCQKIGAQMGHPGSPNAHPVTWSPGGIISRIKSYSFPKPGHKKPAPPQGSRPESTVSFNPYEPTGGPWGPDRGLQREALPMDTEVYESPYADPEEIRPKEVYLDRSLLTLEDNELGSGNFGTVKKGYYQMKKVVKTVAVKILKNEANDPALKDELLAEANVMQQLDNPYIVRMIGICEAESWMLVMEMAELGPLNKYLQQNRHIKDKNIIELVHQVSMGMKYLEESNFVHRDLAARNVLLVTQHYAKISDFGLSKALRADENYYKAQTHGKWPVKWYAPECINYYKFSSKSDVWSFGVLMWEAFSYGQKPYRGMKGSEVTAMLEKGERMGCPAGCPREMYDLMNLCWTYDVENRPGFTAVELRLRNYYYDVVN
Chain of Tyrosine-protein kinase BTK (Mus musculus) (P35991 whole entry): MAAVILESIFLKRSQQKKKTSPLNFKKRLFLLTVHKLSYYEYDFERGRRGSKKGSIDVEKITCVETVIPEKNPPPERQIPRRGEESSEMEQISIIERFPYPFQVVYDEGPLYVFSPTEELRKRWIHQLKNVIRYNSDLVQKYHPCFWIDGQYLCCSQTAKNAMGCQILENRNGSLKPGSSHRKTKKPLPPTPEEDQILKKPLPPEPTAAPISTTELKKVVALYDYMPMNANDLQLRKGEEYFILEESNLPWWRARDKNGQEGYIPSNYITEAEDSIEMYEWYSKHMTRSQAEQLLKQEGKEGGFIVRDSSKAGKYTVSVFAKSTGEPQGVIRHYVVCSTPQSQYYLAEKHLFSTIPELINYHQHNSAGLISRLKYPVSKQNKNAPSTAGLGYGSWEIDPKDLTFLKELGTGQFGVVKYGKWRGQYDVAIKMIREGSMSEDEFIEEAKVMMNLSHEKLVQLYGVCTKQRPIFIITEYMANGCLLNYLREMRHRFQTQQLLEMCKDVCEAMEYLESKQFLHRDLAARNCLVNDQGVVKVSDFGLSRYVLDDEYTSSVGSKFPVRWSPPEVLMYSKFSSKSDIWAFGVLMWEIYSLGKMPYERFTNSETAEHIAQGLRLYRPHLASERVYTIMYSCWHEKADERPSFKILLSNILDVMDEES

For `C[C@]1(OC(=O)/C=C/c2ccccc2)C[C@@H](O)[C@]2(O)C=CO[C@@H](O[C@@H]3O[C@H](CO)[C@@H](O)[C@H](O)[C@H]3O)[C@@H]21` [HARPAGOSIDE], the inhibition [1] was “Active”, the inhibition [2] was “Active” and the inhibition (Osteoclast) was “Dose-dependent effect”. For the same molecule, the inhibition [3] was “Active”, the inhibition (Mus musculus [4]) was “Active” and the inhibition (Mus musculus [5]) was “inactive”. For the same molecule, the inhibition (Mus musculus [6]) was “Active”, the inhibition (Mus musculus [7]) was “Active” and the inhibition [8] was “Active”. For the same molecule, the Activity [9] was “Non-toxic”, the inhibition (Mus musculus [10]) was “Active” and the inhibition [11] was “Active”. For the same molecule, the inhibition [12] was “Active”, the inhibition (Mus musculus [13]) was “Active” and the inhibition [14] was “Dose-dependent effect”. The inhibition (Mus musculus [15]) was “inactive”, the inhibition (Mus musculus [16]) was “inactive” and the inhibition [17] was “Active”. For the same molecule, the inhibition (Mus musculus [18]) was “Active”, the inhibition (Mus musculus [19]) was “inactive” and the inhibition (Mus musculus [20]) was “Active”. For the same molecule, the inhibition (Mus musculus [21]) was “inactive”, the inhibition [22] was “Active” and the inhibition (Mus musculus [23]) was “inactive”. For the same molecule, the inhibition (Mus musculus [24]) was “inactive”, the inhibition [25] was “Dose-dependent effect” and the inhibition [26] was “Active”. The inhibition [27] was “Active”, the inhibition [28] was “Active” and the inhibition (Mus musculus [29]) was “inactive”. The inhibition [30] was “Active”, the inhibition (Mus musculus [31]) was “Active” and the inhibition [32] was “Active”. For the same molecule, the inhibition (Mus musculus [33]) was “Active”, the inhibition [34] was “Active” and the inhibition [35] was “Active”. For the same molecule, the inhibition (Mus musculus [36]) was “inactive” and the inhibition [37] was “Active”.
